Test in all cases: NCI tumour cell line growth inhibition, 48 h
In test [1] the test system is HCT-116.
Test [2] deals with A549.
Test [3] deals with SF-268.
In test [4] the test system is U-251.
The test system of test [5] is OVCAR-8.
In test [6] the test system is HCT-15.
The test system of test [7] is SF-539.
The subject of test [8] is MDA-N.
For test [9], the system named is SK-MEL-2.
Test [10] concerns KM12.
Test [11] has as its system PC-3.
Test [12] relates to EKVX.
In test [13] the test system is TK-10.
For test [14], the system named is M14.
Test [15] has as its system MCF7.
Test [16] has as its system MDA-MB-231.
Test [17] concerns UACC-62.
For test [18], the system named is HT-29.

This note sets out measurements from ChEMBL document CHEMBL1201862, “PubChem BioAssay data set” (2004).

Structures are written as SMILES.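 Grown in 96-well plates, cells were treated for 48 hours with each compound at five concentrations. Insufficient inhibition: endpoint recorded as highest concentration tested. GI50 marks 50% less growth.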 Activity calls are given as the source filed them. Rule as the data show it: active = GI50 up to about 1.1 µM and inactive = higher.

In the case of `CCCCOc1c(C(=O)O)cc(Br)cc1C(=O)O`, the GI50 in [1] was 91.6 µM (inactive); in test [2], > 100 µM (inactive); in test [3], > 100 µM (inactive); in [4], > 100 µM (inactive); in test [5], > 100 µM (inactive); in test [6], greater than 100 µM. Further, the GI50 in test [7], in [8], in test [9], in test [10], in [11] and in test [12] was > 100 µM (inactive) in each case. Besides, the GI50 in test [13], in test [14], in test [15] and in test [16] was > 100 µM (inactive) in each case.

For the molecule `O=C1NC(=O)[C@H]2C3C=CC([C@@H]12)[C@@H]1C(=O)NC(=O)[C@H]31`, the GI50 was > 100 µM (inactive) in test [1]; > 100 µM (inactive) in [2]; > 100 µM (inactive) in test [3]; > 100 µM (inactive) in test [4]; > 100 µM (inactive) in [5]; greater than 100 µM in [6]. Further, the GI50 in test [17], in test [7], in [8], in test [9], in test [11] and in [12] was > 100 µM (inactive) each time. For the same molecule, the GI50 is > 100 µM (inactive) in test [13], > 100 µM (inactive) in test [14], 97.1 µM (inactive) in test [15] and > 100 µM (inactive) in [16].

Consider `O=[N+]([O-])c1ccc2c(c1)c1nn2CCCCOc2nn(c3ccc([N+](=O)[O-])cc23)CCCCO1`, for which the GI50 in [1] is > 100 µM (inactive); in test [3], > 100 µM (inactive); in test [4], > 100 µM (inactive); in test [5] it was > 100 µM (inactive); in [6], greater than 100 µM; in test [7] it was > 100 µM (inactive). Also, the GI50 in test [8], in [9], in test [11], in test [12], in [14] and in test [15] was > 100 µM (inactive) in each case. Also, in test [16], the GI50 is > 100 µM (inactive).

As to `O=C(Nc1cccc(NC(=O)C(=O)C2CCC3=C(Sc4ccccc4N3)C2=O)n1)C(=O)C1CCC2=C(Sc3ccccc3N2)C1=O` (stereo not drawn), the GI50 in test [1] is 40.6 µM (inactive); in [2], > 100 µM (inactive); in test [3], 44.8 µM (inactive); in test [4], 45.1 µM (inactive); in [18], 67.9 µM (inactive); in test [5], 43.8 µM (inactive). The GI50 in test [6] was 30.7 µM; in test [17], 96.4 µM (inactive); in test [7] it was 13.1 µM (inactive); in test [8], 40.2 µM (inactive); in test [9], > 100 µM (inactive); in test [10], 29.2 µM (inactive). Moreover, the GI50 was 27.4 µM (inactive) in test [11]; 85.1 µM (inactive) in test [12]; 86.3 µM (inactive) in test [14]; 75.7 µM (inactive) in test [15]; > 100 µM (inactive) in test [16].

Turning to `CN(C)S(=O)(=O)n1ccnc1`, the GI50 was > 100 µM (inactive) in test [1]; > 100 µM (inactive) in test [2]; > 100 µM (inactive) in [3]; > 100 µM (inactive) in test [4]; greater than 100 µM in test [6]; > 100 µM (inactive) in [7]. Moreover, the GI50 in [8], in test [9], in test [10], in test [11], in test [12] and in [13] was > 100 µM (inactive) in each case. In addition, the GI50 in test [14], in test [15] and in [16] was > 100 µM (inactive) in each case.

`CN(C)CCCNC(=O)c1cc(NC(=O)c2cc(NC(=O)c3cc(NC(=O)CCCn4ccc(CO)c4CO)cn3C)cn2C)cn1C`: the GI50 in [1] is 3.86 µM (inactive); in test [2], 14.5 µM (inactive); in [3] it was 3.83 µM (inactive); in [4], 2.77 µM (inactive); in test [6] it was greater than 100 µM; in [17] it was 3.48 µM (inactive). Also, the GI50 was 3.44 µM (inactive) in test [7]; 16.5 µM (inactive) in test [8]; 25.6 µM (inactive) in test [9]; > 100 µM (inactive) in [10]; 12.2 µM (inactive) in [11]; 72.4 µM (inactive) in test [12]. The GI50 in [13] is 24.8 µM (inactive); in test [15], 3.27 µM (inactive); in test [16], 27.7 µM (inactive).

With `Cc1c(C)c2c(c(N)c1C#N)C(=O)N(NC(=O)c1ccccc1)C2=O`, the GI50 in [1] is > 100 µM (inactive); in test [2], > 100 µM (inactive); in test [3], > 100 µM (inactive); in [4], > 100 µM (inactive); in [5], > 100 µM (inactive); in test [6], greater than 100 µM. The GI50 in test [17], in test [7], in [8], in test [9], in [10] and in test [11] was > 100 µM (inactive) in each case. The GI50 in test [12] is 76.7 µM (inactive); in [13] it was > 100 µM (inactive); in [14] it was > 100 µM (inactive); in test [15], > 100 µM (inactive); in test [16], > 100 µM (inactive).

Take `c1ccc([P+](c2ccccc2)(c2ccccc2)c2ccc([P+](c3ccccc3)(c3ccccc3)c3ccccc3)c3ccccc23)cc1`: the GI50 was 40 µM (inactive) in [1]; 70.1 µM (inactive) in test [2]; > 100 µM (inactive) in [3]; 35.7 µM (inactive) in test [4]; 79.4 µM (inactive) in test [18]; 88.1 µM (inactive) in [5]. Moreover, the GI50 is greater than 100 µM in [6]; 86.5 µM (inactive) in test [17]; 63.7 µM (inactive) in test [7]; 64.4 µM (inactive) in test [8]; > 100 µM (inactive) in test [9]; 34.4 µM (inactive) in test [10]. For the same molecule, the GI50 in test [11] is 70.6 µM (inactive); in [13] it was > 100 µM (inactive); in test [14] it was > 100 µM (inactive); in test [15], 47 µM (inactive); in test [16], > 100 µM (inactive).

For `CCCCCCCCCCCCCCCCNC(=O)/C(=C\c1ccc(Cl)c(Cl)c1)NC(=O)c1ccccc1`, the GI50 in [1] is 37.9 µM (inactive); in [2] it was 43.6 µM (inactive); in test [3], 46.9 µM (inactive); in test [4] it was 35.4 µM (inactive); in test [18], 35.5 µM (inactive); in test [5], 59.6 µM (inactive). Also, the GI50 in test [6] was 30.8 µM; in test [7] it was 16.5 µM (inactive); in [8], 68.7 µM (inactive); in test [9] it was > 100 µM (inactive); in test [10] it was 52.6 µM (inactive); in test [11], 26.5 µM (inactive). Moreover, the GI50 in [12] was 44.3 µM (inactive); in [13] it was 20 µM (inactive); in [14], > 100 µM (inactive); in test [15] it was 25.9 µM (inactive); in test [16], 18 µM (inactive).
